Assay results reported in US20220081412A1, “QUINOLINYL-PYRAZINE-CARBOXAMIDE COMPOUNDS AND USES THEREOF” (The Regents of the University of Michigan, priority 2018, published 2022).

Test system: MIA PaCa-2 cells
Experiment: Bru-seq analysis for nascent RNA synthesis (log2FC of genes, GSEA gene sets)
Type: cell-based, human
Conditions: downregulated gene sets, 4 h, MIA PaCa-2 cells

CCN(CC)CCCC(C)Nc1cnc(C(=O)Nc2cc(C)cc3cccnc23)cn1 (stereo not drawn) [J4, 5-((5-(diethylamino)pentan-2-yl)amino)-N-(6-methylquinolin-8-yl)pyrazine-2-carboxamide] was tested, and the “NES TURASHVILI_BREAST_LOBULAR_CARCINOMA_VS_DUCTAL_NORMAL_DN” value (C2) was −1.603, the “NES ZHANG_TLX_TARGETS_36HR_DN” value (C2) was −2.309 and the “NES ZHANG_TLX_TARGETS_DN” value (C2) was −1.942. For the same compound, the “NES ZHENG_FOXP3_TARGETS_IN_T_LYMPHOCYTE_DN” value (C2) was −1.893, the “ES GO_BASAL_PART_OF_CELL” value (GO) was −0.526 and the “ES GO_CELL_SURFACE_RECEPTOR_SIGNALING_PATHWAY_INVOLVED_IN_CELL_CELL_SIGNALING” value (GO) was −0.570. For the same compound, the “ES GO_CILIUM_ORGANIZATION” value (GO) was −0.331, the “ES GO_CYTOKINE_RECEPTOR_ACTIVITY” value (GO) was −0.488 and the “ES GO_DENDRITIC_SHAFT” value (GO) was −0.568. For the same compound, the “ES GO_DNA_DEPENDENT_ATPASE_ACTIVITY” value (GO) was −0.369, the “ES GO_DNA_DEPENDENT_DNA_REPLICATION_MAINTENANCE_OF_FIDELITY” value (GO) was −0.569 and the “ES GO_DNA_DOUBLE_STRAND_BREAK_PROCESSING” value (GO) was −0.551. For the same compound, the “ES GO_DNA_HELICASE_ACTIVITY” value (GO) was −0.389, the “ES GO_DNA_REPAIR_COMPLEX” value (GO) was −0.429 and the “ES GO_GLUTAMINE_METABOLIC_PROCESS” value (GO) was −0.569. For the same compound, the “ES GO_G_PROTEIN_COUPLED_RECEPTOR_ACTIVITY” value (GO) was −0.476, the “ES GO_HOMOPHILIC_CELL_ADHESION_VIA_PLASMA_MEMBRANE_ADHESION_MOLECULES” value (GO) was −0.581 and the “ES GO_MITOTIC_RECOMBINATION” value (GO) was −0.420. The “ES GO_NEGATIVE_REGULATION_OF_EPITHELIAL_CELL_DIFFERENTIATION” value (GO) was −0.597, the “ES GO_PHOSPHOLIPID_TRANSPORTER_ACTIVITY” value (GO) was −0.549 and the “ES GO_POTASSIUM_CHANNEL_COMPLEX” value (GO) was −0.536. For the same compound, the “ES GO_RECIPROCAL_DNA_RECOMBINATION” value (GO) was −0.450, the “ES GO_RECOMBINATIONAL_REPAIR” value (GO) was −0.382 and the “ES GO_REGULATION_OF_ACUTE_INFLAMMATORY_RESPONSE” value (GO) was −0.521. For the same compound, the “ES GO_REGULATION_OF_MEMBRANE_LIPID_DISTRIBUTION” value (GO) was −0.521, the “ES GO_RESPONSE_TO_X_RAY” value (GO) was −0.501 and the “ES GO_SOMATIC_RECOMBINATION_OF_IMMUNOGLOBULIN_GENE_SEGMENTS” value (GO) was −0.498. The “ES GO_SOMITE_DEVELOPMENT” value (GO) was −0.451, the “ES GO_STRAND_DISPLACEMENT” value (GO) was −0.471 and the “NES GO_BASAL_PART_OF_CELL” value (GO) was −1.629. The “NES GO_CELL_SURFACE_RECEPTOR_SIGNALING_PATHWAY_INVOLVED_IN_CELL_CELL_SIGNALING” value (GO) was −1.653, the “NES GO_CILIUM_ORGANIZATION” value (GO) was −1.502 and the “NES GO_CYTOKINE_RECEPTOR_ACTIVITY” value (GO) was −1.467. The “NES GO_DENDRITIC_SHAFT” value (GO) was −1.746, the “NES GO_DNA_DEPENDENT_ATPASE_ACTIVITY” value (GO) was −1.545 and the “NES GO_DNA_DEPENDENT_DNA_REPLICATION_MAINTENANCE_OF_FIDELITY” value (GO) was −1.697. For the same compound, the “NES GO_DNA_DOUBLE_STRAND_BREAK_PROCESSING” value (GO) was −1.613, the “NES GO_DNA_HELICASE_ACTIVITY” value (GO) was −1.504 and the “NES GO_DNA_REPAIR_COMPLEX” value (GO) was −1.586. The “NES GO_GLUTAMINE_METABOLIC_PROCESS” value (GO) was −1.616, the “NES GO_G_PROTEIN_COUPLED_RECEPTOR_ACTIVITY” value (GO) was −1.804 and the “NES GO_HOMOPHILIC_CELL_ADHESION_VIA_PLASMA_MEMBRANE_ADHESION_MOLECULES” value (GO) was −1.691. For the same compound, the “NES GO_MITOTIC_RECOMBINATION” value (GO) was −1.547, the “NES GO_NEGATIVE_REGULATION_OF_EPITHELIAL_CELL_DIFFERENTIATION” value (GO) was −1.799 and the “NES GO_PHOSPHOLIPID_TRANSPORTER_ACTIVITY” value (GO) was −1.692. The “NES GO_POTASSIUM_CHANNEL_COMPLEX” value (GO) was −1.693, the “NES GO_RECIPROCAL_DNA_RECOMBINATION” value (GO) was −1.485 and the “NES GO_RECOMBINATIONAL_REPAIR” value (GO) was −1.548. For the same compound, the “NES GO_REGULATION_OF_ACUTE_INFLAMMATORY_RESPONSE” value (GO) was −1.555, the “NES GO_REGULATION_OF_MEMBRANE_LIPID_DISTRIBUTION” value (GO) was −1.498 and the “NES GO_RESPONSE_TO_X_RAY” value (GO) was −1.636. For the same compound, the “NES GO_SOMATIC_RECOMBINATION_OF_IMMUNOGLOBULIN_GENE_SEGMENTS” value (GO) was −1.483, the “NES GO_SOMITE_DEVELOPMENT” value (GO) was −1.594 and the “NES GO_STRAND_DISPLACEMENT” value (GO) was −1.493. The “ES HALLMARK_KRAS_SIGNALING_DN” value (HALLMARK) was −0.282, the “ES HALLMARK_KRAS_SIGNALING_UP” value (HALLMARK) was −0.230 and the “ES HALLMARK_MYC_TARGETS_V1” value (HALLMARK) was −0.172. The “ES HALLMARK_MYC_TARGETS_V2” value (HALLMARK) was −0.178, the “ES HALLMARK_TGF_BETA_SIGNALING” value (HALLMARK) was −0.324 and the “NES HALLMARK_KRAS_SIGNALING_DN” value (HALLMARK) was −0.992. For the same compound, the “NES HALLMARK_KRAS_SIGNALING_UP” value (HALLMARK) was −0.965, the “NES HALLMARK_MYC_TARGETS_V1” value (HALLMARK) was −0.831 and the “NES HALLMARK_MYC_TARGETS_V2” value (HALLMARK) was −0.691. For the same compound, the “NES HALLMARK_TGF_BETA_SIGNALING” value (HALLMARK) was −1.256, the “ES KEGG_ABC_TRANSPORTERS” value (KEGG) was −0.412 and the “ES KEGG_ADHERENS_JUNCTION” value (KEGG) was −0.158. For the same compound, the “ES KEGG_ALANINE_ASPARTATE_AND_GLUTAMATE_METABOLISM” value (KEGG) was −0.250, the “ES KEGG_AMYOTROPHIC_LATERAL_SCLEROSIS_ALS” value (KEGG) was −0.247 and the “ES KEGG_AXON_GUIDANCE” value (KEGG) was −0.201. For the same compound, the “ES KEGG_CALCIUM_SIGNALING_PATHWAY” value (KEGG) was −0.324, the “ES KEGG_CELL_ADHESION_MOLECULES_CAMS” value (KEGG) was −0.231 and the “ES KEGG_CYTOSOLIC_DNA_SENSING_PATHWAY” value (KEGG) was −0.247. The “ES KEGG_DNA_REPLICATION” value (KEGG) was −0.254, the “ES KEGG_ECM_RECEPTOR_INTERACTION” value (KEGG) was −0.201 and the “ES KEGG_HEDGEHOG_SIGNALING_PATHWAY” value (KEGG) was −0.329. The “ES KEGG_HOMOLOGOUS_RECOMBINATION” value (KEGG) was −0.260, the “ES KEGG_MISMATCH_REPAIR” value (KEGG) was −0.375 and the “ES KEGG_NEUROACTIVE_LIGAND_RECEPTOR_INTERACTION” value (KEGG) was −0.624. The “ES KEGG_NUCLEOTIDE_EXCISION_REPAIR” value (KEGG) was −0.241, the “ES KEGG_PATHOGENIC_ESCHERICHIA_COLI_INFECTION” value (KEGG) was −0.220 and the “ES KEGG_PURINE_METABOLISM” value (KEGG) was −0.285. The “ES KEGG_PYRIMIDINE_METABOLISM” value (KEGG) was −0.256, the “ES KEGG_RIG_I_LIKE_RECEPTOR_SIGNALING_PATHWAY” value (KEGG) was −0.197 and the “ES KEGG_RNA_POLYMERASE” value (KEGG) was −0.202. The “ES KEGG_STARCH_AND_SUCROSE_METABOLISM” value (KEGG) was −0.342, the “ES KEGG_TGF_BETA_SIGNALING_PATHWAY” value (KEGG) was −0.336 and the “ES KEGG_WNT_SIGNALING_PATHWAY” value (KEGG) was −0.231. The “NES KEGG_ABC_TRANSPORTERS” value (KEGG) was −1.220, the “NES KEGG_ADHERENS_JUNCTION” value (KEGG) was −0.628 and the “NES KEGG_ALANINE_ASPARTATE_AND_GLUTAMATE_METABOLISM” value (KEGG) was −0.732. For the same compound, the “NES KEGG_AMYOTROPHIC_LATERAL_SCLEROSIS_ALS” value (KEGG) was −0.838, the “NES KEGG_AXON_GUIDANCE” value (KEGG) was −0.829 and the “NES KEGG_CALCIUM_SIGNALING_PATHWAY” value (KEGG) was −1.264. The “NES KEGG_CELL_ADHESION_MOLECULES_CAMS” value (KEGG) was −0.738, the “NES KEGG_CYTOSOLIC_DNA_SENSING_PATHWAY” value (KEGG) was −0.784 and the “NES KEGG_DNA_REPLICATION” value (KEGG) was −0.912. The “NES KEGG_ECM_RECEPTOR_INTERACTION” value (KEGG) was −0.655, the “NES KEGG_HEDGEHOG_SIGNALING_PATHWAY” value (KEGG) was −0.982 and the “NES KEGG_HOMOLOGOUS_RECOMBINATION” value (KEGG) was −0.820. For the same compound, the “NES KEGG_MISMATCH_REPAIR” value (KEGG) was −1.179, the “NES KEGG_NEUROACTIVE_LIGAND_RECEPTOR_INTERACTION” value (KEGG) was −1.955 and the “NES KEGG_NUCLEOTIDE_EXCISION_REPAIR” value (KEGG) was −0.899. The “NES KEGG_PATHOGENIC_ESCHERICHIA_COLI_INFECTION” value (KEGG) was −0.782, the “NES KEGG_PURINE_METABOLISM” value (KEGG) was −1.277 and the “NES KEGG_PYRIMIDINE_METABOLISM” value (KEGG) was −1.109. The “NES KEGG_RIG_I_LIKE_RECEPTOR_SIGNALING_PATHWAY” value (KEGG) was −0.724, the “NES KEGG_RNA_POLYMERASE” value (KEGG) was −0.669 and the “NES KEGG_STARCH_AND_SUCROSE_METABOLISM” value (KEGG) was −1.006. The “NES KEGG_TGF_BETA_SIGNALING_PATHWAY” value (KEGG) was −1.284, the “NES KEGG_WNT_SIGNALING_PATHWAY” value (KEGG) was −0.992 and the “ES BRN2_01” value (TFBT) was −0.247. For the same compound, the “ES CDPCR1_01” value (TFBT) was −0.259, the “ES CDP_01” value (TFBT) was −0.301 and the “ES EN1_01” value (TFBT) was −0.276. For the same compound, the “ES FOXJ2_02” value (TFBT) was −0.261, the “ES GGCKCATGS_UNKNOWN” value (TFBT) was −0.441 and the “ES HMEF2_Q6” value (TFBT) was −0.266. The “ES HNF1_Q6” value (TFBT) was −0.266, the “ES HOX13_01” value (TFBT) was −0.366 and the “ES IK1_01” value (TFBT) was −0.227. For the same compound, the “ES IRF2_01” value (TFBT) was −0.324, the “ES MEF2_02” value (TFBT) was −0.225 and the “ES MEF2_Q6_01” value (TFBT) was −0.220. The “ES MEIS1BHOXA9_01” value (TFBT) was −0.320, the “ES NKX3A_01” value (TFBT) was −0.267 and the “ES PAX8_01” value (TFBT) was −0.439.
